# Data reported in EP0620225B1, “Cephalosporin derivatives” (Basilea Pharmaceutica AG, priority 1993, dated 1994).
# Where two headings read alike, the source gives them in different places.
# Assays:
# [1] = system: E.faecium; test: In vitro activity against selected species (MIC50, range); format: cell-based; settings: Enterococcus faecium, medium MHA
# Procedure: (§1) In vitro activity was determined by minimum inhibitory concentration in a microorganism spectum by the agar dilution method in Mueller Hinton agar.
# [2] = system: S.aureus MRSA; test: In vitro activity against selected species (MIC50, MIC90, range); format: cell-based; settings: Staphylococcus aureus, medium MHA (Mueller Hinton Agar) +NaCl
# Procedure: as §1
# [3] = system: E.faecalis; test: as above; format: cell-based; settings: Enterococcus faecalis, medium MHA
# Procedure: as §1
# [4] = system: S.agalactiae QK44; test: Antibacterial spectrum (MIC), agar dilution; format: cell-based
# Procedure: as §1
# [5] = system: C.freundii 43; test: Antibacterial spectrum (MIC), agar dilution; format: cell-based
# Procedure: as §1
# [6] = system: S.aureus 6538; test: Antibacterial spectrum (MIC), agar dilution; format: cell-based
# Procedure: as §1
# [7] = system: Acinetobacter sp.51-156; test: Antibacterial spectrum (MIC), agar dilution; format: cell-based
# Procedure: as §1
# [8] = system: P.aeruginosa 27853; test: Antibacterial spectrum (MIC), agar dilution; format: cell-based
# Procedure: as §1
# [9] = system: P.asaccharolyticus 29743; test: Antibacterial spectrum (MIC), agar dilution; format: cell-based
# Procedure: as §1
# [10] = system: S.marcescens 69438; test: Antibacterial spectrum (MIC), agar dilution; format: cell-based
# Procedure: as §1
# [11] = system: B.fragilis ATCC25285; test: Antibacterial spectrum (MIC), agar dilution; format: cell-based
# Procedure: as §1
# [12] = system: X.maltophilia 1AC739; test: Antibacterial spectrum (MIC), agar dilution; format: cell-based
# Procedure: as §1
# [13] = system: S.viridans group 016; test: Antibacterial spectrum (MIC), agar dilution; format: cell-based
# Procedure: as §1
# [14] = system: K.pneumoniae 418; test: Antibacterial spectrum (MIC), agar dilution; format: cell-based
# Procedure: as §1
# [15] = system: E.cloacae 908SSi; test: Antibacterial spectrum (MIC), agar dilution; format: cell-based
# Procedure: as §1
# [16] = system: S.pneumoniae Q19; test: Antibacterial spectrum (MIC), agar dilution; format: cell-based
# Procedure: as §1
# [17] = system: H.influenzae 1; test: Antibacterial spectrum (MIC), agar dilution; format: cell-based
# Procedure: as §1
# [18] = system: S.aureus 734 MRSA; test: Antibacterial spectrum (MIC), agar dilution; format: cell-based
# Procedure: as §1
# [19] = system: L.monocytogenes BK23; test: Antibacterial spectrum (MIC), agar dilution; format: cell-based
# Procedure: as §1
# [20] = system: C.freundii 902; test: Antibacterial spectrum (MIC), agar dilution; format: cell-based
# Procedure: as §1
# [21] = system: M.catarrhalis RA21; test: Antibacterial spectrum (MIC), agar dilution; format: cell-based
# Procedure: as §1
# [22] = system: M.morganii 6H-137; test: Antibacterial spectrum (MIC), agar dilution; format: cell-based
# Procedure: as §1
# [23] = system: E.cloacae 908R; test: Antibacterial spectrum (MIC), agar dilution; format: cell-based
# Procedure: as §1
# [24] = system: S.pyogenes B15; test: Antibacterial spectrum (MIC), agar dilution; format: cell-based
# Procedure: as §1
# [25] = system: E.coli 25922; test: Antibacterial spectrum (MIC), agar dilution; format: cell-based
# Procedure: as §1
# [26] = system: C.difficile ZH1; test: Antibacterial spectrum (MIC), agar dilution; format: cell-based
# Procedure: as §1
# [27] = system: N.meningitidis 69480; test: Antibacterial spectrum (MIC), agar dilution; format: cell-based
# Procedure: as §1
# [28] = system: P.mirabilis 2117; test: Antibacterial spectrum (MIC), agar dilution; format: cell-based
# Procedure: as §1
# [29] = system: P.vulgaris 1028; test: Antibacterial spectrum (MIC), agar dilution; format: cell-based
# Procedure: as §1
# [30] = system: E.faecalis 6; test: Antibacterial spectrum (MIC), agar dilution; format: cell-based
# Procedure: as §1
# [31] = system: Escherichia coli 25922; test: Efficacy against systemic infections (septicemia) in mice; format: in vivo; settings: 96 h, survival day 4
# Procedure, shortened: (§2)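 Swiss albino mice (16–20 g) infected i.p. with 4–10× the 48-h LD50 of each strain; compound given p.o. or s.c. at 1 and 3 h post-challenge, plus 5 h for P. aeruginosa BA. Five mice per group; ED50 (mg/kg) by probit analysis of day-4 survival.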
# [32] = system: S.aureus Smith; test: as above; format: in vivo; settings: Staphylococcus aureus, 96 h, sc 1 and 3 h after challenge, survival day 4
# Procedure, shortened: as §2
# [33] = system: S.pneumoniae PEN-R; test: In vitro activity against selected species (MIC50, MIC90, range); format: cell-based; settings: Streptococcus pneumoniae; for MIC: MIC range
# [34] = system: S.aureus MSSA; test: as above; format: cell-based; settings: Staphylococcus aureus, medium MHB (Mueller Hinton Broth)
# [35] = Citrobacter freundii, read-out: MIC
# [36] = Staphylococcus aureus, read-out: MIC
# [37] = Enterobacter cloacae, read-out: MIC
# [38] = medium IsoB (Isosensitest Broth)
smiles,measurement,setting,value
"CO/N=C(\C(=O)N[C@@H]1C(=O)N2C(C(=O)O)=C(CSc3nc(=O)c(=O)[nH]n3C)CS[C@H]12)c1csc(N)n1 [Ceftriaxone, [6R-[6 α,7 β(Z)]]-7-[[(2-Amino-4-thiazolyl)(methoxyimino)acetyl]amino]-8-oxo-3-[[(1,2,5,6-tetrahydro-2-methyl-5,6-dioxo-1,2,4-triazin-3-yl)thio]methyl]-5-thia-1-azabicyclo[4.2.0]oct-2-ene-2-carboxylic acid, reference compound]",MIC,[1]; MIC range,> 32 µg/mL
same,MIC50,[1],> 32 µg/mL
same,MIC,[2]; MIC range,> 32 µg/mL
same,MIC50,[2],> 32 µg/mL
same,MIC90,[2],> 32 µg/mL
same,MIC50,[3],> 32 µg/mL
same,MIC90,[3],> 32 µg/mL
same,MIC,"[4]; Streptococcus agalactiae, read-out: MIC",≤ 0.06 µg/mL
same,MIC,[5]; [35],32 µg/mL
same,MIC,[6]; [36],4 µg/mL
same,MIC,"[7]; SP.51156, read-out: MIC",32 µg/mL
same,MIC,"[8]; Pseudomonas aeruginosa, read-out: MIC",16 µg/mL
same,MIC,"[9]; Peptoniphilus asaccharolyticus, read-out: MIC",0.25 µg/mL
same,MIC,"[10]; Serratia marcescens, read-out: MIC",0.25 µg/mL
same,MIC,"[11]; Bacteroides fragilis, read-out: MIC",16 µg/mL
same,MIC,"[12]; Stenotrophomonas maltophilia, read-out: MIC",> 32 µg/mL
same,MIC,"[13]; Streptococcus viridans, read-out: MIC",0.25 µg/mL
same,MIC,"[14]; Klebsiella pneumoniae, read-out: MIC",≤ 0.06 µg/mL
same,MIC,[15]; [37],0.25 µg/mL
same,MIC,"[16]; Streptococcus pneumoniae, read-out: MIC",≤ 0.06 µg/mL
same,MIC,"[17]; Haemophilus influenzae, read-out: MIC",< 0.06 µg/mL
same,MIC,[18]; [36],> 32 µg/mL
same,MIC,"[19]; Listeria monocytogenes, read-out: MIC",> 16 µg/mL
same,MIC,[20]; [35],0.25 µg/mL
same,MIC,"[21]; Moraxella catarrhalis, read-out: MIC",1 µg/mL
same,MIC,"[22]; Morganella morganii, 6H137, read-out: MIC",≤ 0.06 µg/mL
same,MIC,[23]; [37],> 32 µg/mL
same,MIC,"[24]; Streptococcus pyogenes, read-out: MIC",≤ 0.06 µg/mL
same,MIC,"[25]; Escherichia coli, read-out: MIC",≤ 0.06 µg/mL
same,MIC,"[26]; Clostridioides difficile, read-out: MIC",> 32 µg/mL
same,MIC,"[27]; Neisseria meningitidis, read-out: MIC",< 0.01 µg/mL
same,MIC,"[28]; Proteus mirabilis, read-out: MIC",≤ 0.06 µg/mL
same,MIC,"[29]; Proteus vulgaris, read-out: MIC",0.12 µg/mL
same,MIC,"[30]; Enterococcus faecalis, read-out: MIC",> 32 µg/mL
same,ED50,"[31]; Escherichia coli 25922, po (orally) 1 and 3 h after challenge",0.9 mg/kg
same,ED50,"[31]; Escherichia coli, E.coli 25922, sc 1 and 3 h after challenge",≤ 0.01 mg/kg
same,ED50,[32],< 2 mg/kg
same,MIC,[33]; [38],0.1 to 2 µg/mL
same,MIC,[33]; medium IsoB + 20% serum,1 to 8 µg/mL
same,MIC50,[33]; [38],0.5 µg/mL
same,MIC90,[33]; [38],1 µg/mL
same,MIC50,[33]; medium IsoB + 20% serum,4 µg/mL
same,MIC,[34]; MIC range,2 to 16 µg/mL
same,MIC50,[34],4 µg/mL
same,MIC90,[34],16 µg/mL
"Nc1nc(/C(=N/O)C(=O)N[C@@H]2C(=O)N3C(C(=O)O)=C(/C=C4\CCN(c5cccnc5)C4=O)CS[C@H]23)cs1 [K, [6R-[3(E),6α,7β(Z)]]-7-[[(2-Amino-4-thiazolyl)(hydroxyimino)acetyl]-amino]-8-oxo-3-[[2-oxo-1-(3-pyridinyl)-3-pyrrolidinylidene]methyl]-5-thia-1-azabicyclo[4.2.0]oct-2-ene-2-carboxylic acid]",MIC,[4],0.5 µg/mL
same,MIC,[5],2 µg/mL
same,MIC,[6],1 µg/mL
same,MIC,[7],32 µg/mL
same,MIC,[8],16 µg/mL
same,MIC,[9],≤0.25 µg/mL
same,MIC,[10],0.5 µg/mL
same,MIC,[11],4 µg/mL
same,MIC,[12],>32 µg/mL
same,MIC,[13],1 µg/mL
same,MIC,[14],≤0.12 µg/mL
same,MIC,[15],≤0.12 µg/mL
same,MIC,[16],0.12 µg/mL
same,MIC,[17],0.25 µg/mL
same,MIC,[18],8 µg/mL
same,MIC,[19],8 µg/mL
same,MIC,[20],≤0.12 µg/mL
same,MIC,[21],>16 µg/mL
same,MIC,[22],≤0.12 µg/mL
same,MIC,[23],4 µg/mL
same,MIC,[24],≤0.06 µg/mL
same,MIC,[25],≤0.12 µg/mL
same,MIC,[26],16 µg/mL
same,MIC,[27],≤0.06 µg/mL
same,MIC,[28],≤0.12 µg/mL
same,MIC,[29],4 µg/mL
same,MIC,[30],1 µg/mL
